# Results published in publication PMC10096376, “Insecticidal and Synergistic Potential of Three Monoterpenoids against the Yellow Fever Mosquito, Aedes aegypti (Diptera: Culicidae), and the House Fly, Musca domestica (Diptera: Muscidae)” (Molecules, 2023).
# Several values for one entry are separate records, joined by “and”; a condition that tells them apart may be missing. Identical values can stand only once. Like-named read-outs stand apart in the source and are kept apart here.
# Experiments:
# rat = details: in vivo; cited from earlier work
# Musca domestica [1] = assay: Co-toxicity assay with permethrin (topical); assay type: in vivo; details: for 1-h% Mean Knockdown ± SEM, Synergist Alone / 24-h% Mean Mortality ± SEM, Synergist Alone: 10.2 μg PBO, 70 μg carvone, 190 μg menthone, 80 μg fenchone per fly; for times as potent a synergist of permethrin as PBO: 24-h mortality; for 1-h% Mean Knockdown ± SEM, Mixture: near-sublethal synergist dose (10.2 μg PBO, 70 μg carvone, 190 μg menthone, 80 μg fenchone) + permethrin 18 ng; for 1-h knockdown Co-Toxicity Factor / 24-h mortality Co-Toxicity Factor: near-sublethal synergist dose + permethrin, >+20 potentiation, <−20 antagonism, −20 to +20 additive
# Method: […]. Each dose was formulated in a total volume of 1.5 mL of acetone. A dose of permethrin that produced approximately 50% mortality (18 ng) was used as the treatment. Female flies were sorted into groups of 20 per synergism assay and dosed as previously mentioned (i.e., the same way as in the topical toxicity assays). Flies were assessed for mortality at 24 h.
# Aedes aegypti [2] = system: Aedes aegypti
# Method: (§1) For Ae. aegypti, synergism assays were performed similar to the topical applications described previously, with the following modifications: 2 doses (2 µg/mosquito and 10 µg/mosquito) of each monoterpenoid were applied as synergists, similar to previous studies exploring the synergistic potential of natural products in combination with an intermediate dose-level of insecticide alone.
# (§2) Mosquitoes were transferred to deli cups and kept at a controlled temperature and humidity (the same conditions as described for the topical application of insecticides and monoterpenoids alone). Again, a minimum of 3 separate rearing cohorts were used among replicates of each dose combination.
# (§3) Dose responses were modeled via probit analysis, and their resulting estimates were obtained. […] A control correction option (OPTC command) was used to account for responses to the vehicle control treatments. Co-toxicity values were calculated by the method of [29]. A co-toxicity factor of >+20 signifies potentiation, <−20 antagonism, and −20 to +20 additive.
# Aedes aegypti [3] = details: for LD10 (95% CI) / LD50 (95% CI) / LD90 (95% CI): 24 h, topical, adult females, susceptible strain
# acetylcholinesterase = acetylcholinesterase (Musca domestica, UniProt Q7YWJ9); assay: In vitro inhibition of acetylcholinesterase (Ellman), head homogenate; assay type: biochemical; details: at 1 mM, M. domestica preparation; read-out: inhibition of AChE
# acetylcholinesterase, sequence (Q7YWJ9 81-660): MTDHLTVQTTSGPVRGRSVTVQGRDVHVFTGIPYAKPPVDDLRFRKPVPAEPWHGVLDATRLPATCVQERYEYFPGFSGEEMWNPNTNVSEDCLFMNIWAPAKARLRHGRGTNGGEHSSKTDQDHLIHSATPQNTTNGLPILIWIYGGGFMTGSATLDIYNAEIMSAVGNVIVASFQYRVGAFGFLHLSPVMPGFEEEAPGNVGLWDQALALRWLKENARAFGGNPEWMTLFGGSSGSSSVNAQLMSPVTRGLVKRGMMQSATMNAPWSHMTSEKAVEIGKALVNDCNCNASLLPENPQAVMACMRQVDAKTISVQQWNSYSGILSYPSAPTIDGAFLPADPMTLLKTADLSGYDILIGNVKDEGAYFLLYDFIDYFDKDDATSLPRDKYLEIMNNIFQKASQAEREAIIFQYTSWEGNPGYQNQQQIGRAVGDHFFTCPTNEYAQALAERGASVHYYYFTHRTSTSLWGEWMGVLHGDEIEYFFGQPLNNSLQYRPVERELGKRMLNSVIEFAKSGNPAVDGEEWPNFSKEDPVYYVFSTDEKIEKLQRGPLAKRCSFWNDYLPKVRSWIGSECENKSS
# Method: Acetylcholinesterase inhibition was conducted on homogenates of whole-body Ae. aegypti and M. domestica heads using Ellman’s method. For Ae. aegypti, 10 whole female adults were placed in 2 mL microcentrifuge screw cap tubes with 3–5.2 mm zircon/silica beads and homogenized in 500 μL of sodium phosphate buffer (100 mM, pH 7.8) using a Precellys Evolution bead beater (Bertin Corp., Rockville, MD, USA) set to two 15-s pulses of 5600 rpm. Afterward, 500 μL of Triton X-100 buffer (100 mM sodium phosphate, pH 7.8, 0.6% Triton X-100) was added to each tube (final Triton X-100 concentration: 0.3%), inverted several times to mix up the sample, and then centrifuged at 10,000× g for 4 min at 4 °C. The supernatant was used as the enzyme source. The same process was carried out with M. domestica, except three heads were processed in a 1000:1000 μL sodium phosphate buffer and Triton X-100 buffer in the same manner as just described.
# Concentration responses were conducted in the wells of a 96-well, clear, flat-bottomed plate. Inhibitor solutions of methomyl or monoterpenoids were first dissolved in DMSO (dimethyl sulfoxide) and then diluted in sodium phosphate buffer (100 mM, pH 7.8, DMSO concentration of 1%). A volume of 10 μL of the inhibitor solution was added to each well, along with 90 μL of sodium phosphate buffer, and finally 10 μL of homogenate. This was incubated on a plate shaker at 400 rpm for 10 min at room temperature. The final concentrations for methomyl were 100 μM, 10 μM, 1 μM, 100 nM, 10 nM, 1 nM, and 0 nM. For the monoterpenoids, the same range was used except the top concentration was 1 mM and the bottom non-zero concentration was 10 nM. The final concentration of DMSO in all wells was 0.09%.
# After the 10-min incubation, 100 μL of Ellman’s reagent prepared in sodium phosphate buffer and each corresponding inhibitor concentration were added to the wells using a multichannel pipette.
# as §3
# Aedes aegypti [4] = assay: Co-toxicity assay with permethrin (topical); details: for 1-h knockdown Co-Toxicity Factor / 24-h mortality Co-Toxicity Factor: >+20 potentiation, <−20 antagonism, −20 to +20 additive
# Method: as §1, §2, §3
# Musca domestica [5] = details: 24 h, topical, adult females, susceptible strain
# rabbit = details: cited from earlier work
# [6] = cited from earlier work
# [7] = animal and route not given; cited from earlier work
# [8] = 2 μg synergist + methomyl 6 ng/mosquito
# [9] = 2 μg synergist + methomyl, >+20 potentiation, <−20 antagonism, −20 to +20 additive
# [10] = 10 μg synergist + methomyl 6 ng/mosquito
# [11] = 10 μg synergist + methomyl, >+20 potentiation, <−20 antagonism, −20 to +20 additive
# [12] = 2 μg synergist + permethrin 0.6 ng/mosquito
# [13] = 10 μg synergist + permethrin 0.6 ng/mosquito
# [14] = 10 μg synergist per Ae. aegypti
SMILES,"1-h% Mean Knockdown ± SEM, Synergist Alone (Musca domestica [1])","24-h% Mean Mortality ± SEM, Synergist Alone (Musca domestica [1])","1-h% Mean Knockdown ± SEM, Mixture (Musca domestica [1])",1-h knockdown Co-Toxicity Factor (Musca domestica [1]),24-h mortality Co-Toxicity Factor (Musca domestica [1]),"1-h% Mean Knockdown ± SEM, Synergist Alone (Aedes aegypti [2]; 2 μg applied)","24-h% Mean Mortality ± SEM, Synergist Alone (Aedes aegypti [2]; 2 μg applied)","48-h% Mean Mortality ± SEM, Synergist Alone (Aedes aegypti [2]; 2 μg applied)",LD10 (95% CI) (Aedes aegypti [3]),LD90 (95% CI) (Aedes aegypti [3]),"1-h% Mean Knockdown ± SEM, Mixture (Aedes aegypti [4]; [12])",1-h knockdown Co-Toxicity Factor (Aedes aegypti [4]; 2 μg synergist + permethrin),24-h mortality Co-Toxicity Factor (Aedes aegypti [4]; 2 μg synergist + permethrin),"1-h% Mean Knockdown ± SEM, Synergist Alone (Aedes aegypti [4]; 2 μg synergist per Ae. aegypti)","24-h% Mean Mortality ± SEM, Synergist Alone (Aedes aegypti [4]; 2 μg synergist per Ae. aegypti)","1-h% Mean Knockdown ± SEM, Mixture (Aedes aegypti [4]; [13])",1-h knockdown Co-Toxicity Factor (Aedes aegypti [4]; 10 μg synergist + permethrin),"1-h% Mean Knockdown ± SEM, Synergist Alone (Aedes aegypti [4]; [14])","24-h% Mean Mortality ± SEM, Synergist Alone (Aedes aegypti [4]; [14])",LD10 (95% CI) (Musca domestica [5]),further results
"CC12CCC(C1)C(C)(C)C2=O [Fenchone, L-fenchone]",0 ± 0%,0 ± 0%,100 ± 0%,24.0,63.4,0 ± 0%,2.5 ± 2.5%,7.5 ± 4.8%,7600 (5000–9500) b ng/mg body weight,"42,000 (28,800–94,900) d ng/mg body weight",100 ± 0%,32.0,160,0 ± 0%,2.5 ± 2.5%,100 ± 0%,16,10 ± 4.1%,2.5 ± 2.5%,8800 (8100–9400) d ng/mg body weight,"Oral LD50 (rat): 6160 (rt) mg compound per kg body weight; times as potent a synergist of permethrin as PBO (Musca domestica [1]): 1.1; 1-h% Mean Knockdown ± SEM, Mixture (Aedes aegypti [2]; [8]): 83.3 ± 3.3%; 1-h knockdown Co-Toxicity Factor (Aedes aegypti [2]; [9]): −5; 24-h mortality Co-Toxicity Factor (Aedes aegypti [2]; [9]): −11; 48-h mortality Co-Toxicity Factor (Aedes aegypti [2]; [9]): −17; 24-h mortality Co-Toxicity Factor (Aedes aegypti [2]; 2 μg synergist + methomyl, >+20 potentiation, <−20 antagonism, −20 to +20 additive, listed as fenchone): negative; 1-h% Mean Knockdown ± SEM, Synergist Alone (Aedes aegypti [2]; 10 μg applied): 10 ± 4.1%; 24-h% Mean Mortality ± SEM, Synergist Alone (Aedes aegypti [2]; 10 μg applied): 2.5 ± 2.5%; 48-h% Mean Mortality ± SEM, Synergist Alone (Aedes aegypti [2]; 10 μg applied): 10 ± 4.1%; 1-h% Mean Knockdown ± SEM, Mixture (Aedes aegypti [2]; [10]): 93.3 ± 6.7%; 1-h knockdown Co-Toxicity Factor (Aedes aegypti [2]; [11]): −4; 24-h mortality Co-Toxicity Factor (Aedes aegypti [2]; [11]): 22; 48-h mortality Co-Toxicity Factor (Aedes aegypti [2]; [11]): 7; LD50 (95% CI) (Aedes aegypti [3]): 11,300 (10,200–53,400) d ng/mg body weight; inhibition at 1000 µM (acetylcholinesterase): 1.9 ± 0.3%; 24-h mortality Co-Toxicity Factor (Aedes aegypti [4]; 10 μg synergist + permethrin): 121; LD50 (95% CI) (Musca domestica [5]): 13,200 (12,600–13,800) d ng/mg body weight; LD90 (95% CI) (Musca domestica [5]): 19,900 (18,600–21,600) d ng/mg body weight; Dermal LD50 (rabbit; in vivo): 5000 (rb) mg compound per kg body weight"
"CC(C)[C@@H]1CC[C@@H](C)CC1=O [Menthone, L-menthone]",4 ± 2.4%,0 ± 0%,95 ± 2.9%,12.6,48.4,7.5 ± 4.8%,5 ± 2.9%,7.5 ± 2.5%,5000 (1000–6300) b ng/mg body weight,"10,000 (8500–13,100) c ng/mg body weight",100 ± 0%,19.8,132,7.5 ± 4.8%,5 ± 2.9%,100 ± 0%,13,12.5 ± 4.8%,15 ± 5%,5300 (5100–5400) c ng/mg body weight,"times as potent a synergist of permethrin as PBO (Musca domestica [1]): 0.9; 1-h% Mean Knockdown ± SEM, Mixture (Aedes aegypti [2]; [8]): 100 ± 0%; 1-h knockdown Co-Toxicity Factor (Aedes aegypti [2]; [9]): 0; 48-h mortality Co-Toxicity Factor (Aedes aegypti [2]; [9]): 7; 1-h% Mean Knockdown ± SEM, Synergist Alone (Aedes aegypti [2]; 10 μg applied): 12.5 ± 4.8%; 24-h% Mean Mortality ± SEM, Synergist Alone (Aedes aegypti [2]; 10 μg applied): 15 ± 5%; 48-h% Mean Mortality ± SEM, Synergist Alone (Aedes aegypti [2]; 10 μg applied): 22.5 ± 7.5%; 1-h% Mean Knockdown ± SEM, Mixture (Aedes aegypti [2]; [10]): 100 ± 0%; 1-h knockdown Co-Toxicity Factor (Aedes aegypti [2]; [11]): 0; 24-h mortality Co-Toxicity Factor (Aedes aegypti [2]; [11]): 29; 48-h mortality Co-Toxicity Factor (Aedes aegypti [2]; [11]): 7; times as effective a synergist of methomyl as PBO (Aedes aegypti [2]; 24-h mortality, 2 μg synergist): 2.0; times as toxic as fenchone (Aedes aegypti [3]; at LD10): about 1.5; times as toxic as fenchone (Aedes aegypti [3]; at LD50): about 1.5; times as toxic as fenchone (Aedes aegypti [3]; at LD90): about 4.2; inhibition at 1000 µM (acetylcholinesterase): 3.7 ± 1.2%; 24-h mortality Co-Toxicity Factor (Aedes aegypti [4]; 10 μg synergist + permethrin): 83; times as strong a synergist of permethrin as PBO (Aedes aegypti [4]; 24-h mortality, 2 μg synergist): 5.3; LD90 (95% CI) (Musca domestica [5]): 8800 (8400–9400) c ng/mg body weight"
"CCCCOCCOCCOCc1cc2c(cc1CCC)OCO2 [PBO, piperonyl butoxide, reference compound]",2 ± 2%,6 ± 2.9%,96 ± 4%,16.2,55.9,7.5 ± 2.5%,12.5 ± 6.3%,15 ± 3.4%,,,52.5 ± 7.5%,−44.7,25,7.5 ± 2.5%,12.5 ± 6.3%,60 ± 14.7%,−39,22.5 ± 4.8%,72.5 ± 8.5%,,"1-h knockdown Co-Toxicity Factor (Aedes aegypti [2]; in vivo): −5.3; 1-h% Mean Knockdown ± SEM, Mixture (Aedes aegypti [2]; in vivo): 90 ± 10%; 24-h mortality Co-Toxicity Factor (Aedes aegypti [2]; in vivo): 14.3; 48-h mortality Co-Toxicity Factor (Aedes aegypti [2]; in vivo): 20.9"
"CC1(C)C(C=C(Cl)Cl)C1C(=O)OCc1cccc(Oc2ccccc2)c1 (centres unmarked) [Permethrin, reference compound]",,,,,,,,,0.23 (0.12–0.33) a ng/mg body weight,1.41 (1.08–2.24) a ng/mg body weight,,,,,,,,,,0.46 (0.37–0.56) a ng/mg body weight,"Oral LD50 (rat): 430–4000 (rt) mg compound per kg body weight; 1-h% Mean Knockdown ± SEM, Permethrin Alone (Musca domestica [1]; permethrin 18 ng): 80 ± 7.3%; 24-h% Mean Mortality ± SEM, Permethrin Alone (Musca domestica [1]; permethrin 18 ng): 58 ± 10.1%; aerobic soil half-life [6]: 11.6 to 113 days; LD50 (95% CI) (Aedes aegypti [3]): 0.58 (0.45–0.71) a ng/mg body weight; 1-h% Mean Knockdown ± SEM, Permethrin Alone (Aedes aegypti [4]; permethrin 0.6 ng/mosquito): 76 ± 9.2% and 87.5 ± 6.3%; 24-h% Mean Mortality ± SEM, Permethrin Alone (Aedes aegypti [4]; permethrin 0.6 ng/mosquito): 27.5 ± 4.8%; 24-h% Mean Mortality ± SEM, Permethrin Alone (Aedes aegypti [4]; permethrin 0.6 ng/mosquito, listed as permethrin): 36 ± 6%; LD50 (95% CI) (Musca domestica [5]): 0.84 (0.79–0.93) a ng/mg body weight; LD90 (95% CI) (Musca domestica [5]): 1.5 (1.4–1.7) a ng/mg body weight; Dermal LD50 (rabbit; ref 32,33 (L-fenchone), 35,36 (Permethrin), 37 (Methomyl)): 2000 (rb) mg compound per kg body weight"
Cc1ccc(C(C)C)cc1O [carvacrol],,,,,,,,,,,,,,,,,,,,,LD50 [7]: 2000 to 3000 mg/kg
CC(C)=C1CC[C@@H](C)CC1=O [pulegone],,,,,,,,,,,,,,,,,,,,,LD50 [7]: 2000 to 3000 mg/kg
